Measurements as given in article PMC10858199, “Amyloid-β aggregates activate peripheral monocytes in mild cognitive impairment” (Nature Communications, 2024).

Columns and labels:
[1] = target: CR3 I-domain; assay: SPR, CR3 I domain binding to immobilized Aβ or iC3b; parameters: species or system human; settings: pH 7.4, 1 mM MgCl2; EVILFIT 2D distribution
Description: (§1) SPR assays were performed using CM-4 chips (cat no. 50-105-5323, Cytiva) and run in the BIAcore 3000 instrument (GE Health Care). As described, the chip surfaces were coupled with monomeric Aβ, aggregated Aβ, or iC3b using an amine-coupling chemistry method. A reference surface was prepared by coupling the surfaces with ethanolamine rather than protein. The CR3 and CR4 I domains were stabilized in the activated conformation by mutation of a C-terminal isoleucine residue to glycine and prepared as described earlier. […] The prepared solutions were injected over the surfaces; the contact time (tc) was 180 s, and the following dissociation phase time was 400 s. […] The distribution P (kd, KD) was calculated using the discretization of the equation:1 STotal=∫KDminKDmax∫koffminkoffmaxSkoff,KD,canalyte,tPkoff,KDdkoffdKD where S is the SPR signal. […] This was done through a global fit to the association and dissociation traces at the analyte concentrations (canalyte) mentioned above. The algorithm used Tikhonov regularization as described[44] at a confidence level of p = 0.95 to determine the most parsimonious distribution consistent with the data, showing only features essential to fit the data.

[2] = target: T1, CR4 I-domain (Homo sapiens, UniProt P20702, I333G); assay: SPR, CR4 I domain binding to immobilized Aβ or iC3b; settings: even at high concentrations of the CR4 I-domain (up to 10000 nM)
T1 construct: made in house
T1 sequence (P20702 165-339 I333G limits assumed): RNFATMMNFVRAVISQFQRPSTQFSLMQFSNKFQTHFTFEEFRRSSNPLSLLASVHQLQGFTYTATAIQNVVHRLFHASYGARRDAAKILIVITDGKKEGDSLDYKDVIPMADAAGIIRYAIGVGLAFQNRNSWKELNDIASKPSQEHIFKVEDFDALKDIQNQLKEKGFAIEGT
Description: as §1

[3] = system: iPSC-derived microglia; assay: Lysosomal activity of iPSC-derived microglia (LysoTracker); type: cell-based, human; settings: Aβ 5 µg/mL, 60 min, 37 °C
Description: (§2) For microglial differentiation, the human induced pluripotent stem cell (iPSC) line BIHi043A-XM001 was used[56]. Cells were cultured on Matrigel™ (cat. no. 356234, Corning)-coated culture plates in Essential 8™ Flex Medium (cat. no. A2858501, Gibco). The culture medium was changed daily, and cells were passaged in clusters every 3–4 days at a density of 80% using 0.5 mM EDTA/PBS. iPSCs were differentiated into microglia using the protocol described[72]. First, iPSCs were differentiated into hematopoietic progenitors (HP) using STEMdiff™ Hematopoietic Kit (cat. No. 05310, Stem Cell Technologies). On Day −1, iPSCs with a 70–80% density were passaged with ReLeSR™ (cat. no. 05872, Stem Cell Technologies) into E8 flex containing Matrigel-coated 6-well plates. Clusters of 100 cells were seeded at the desired density of 50–100 per well. At Day 0, in wells with 40–80 clusters, the E8 flex medium was replaced with 2 mL medium A. On Day 2, 1 mL of medium A was added to the well. On Day 3, the medium was removed and replaced with 2 mL Medium B. On Days 5, 7, and 9, 1 mL of medium B was added to the well. […] The adherent cells were gently washed off to increase the yield using a 5 mL serological pipette. […] On Days 13, 15, 17, 19, and 21, 1 mL of microglia differentiation medium was added to the well. […] On Days 38–42, the microglia were ready for functional studies. […]

[4] = system: CR4 (CD11c); assay: CR4 (CD11c) surface expression on iPSC-derived microglia; type: cell-based, human; settings: Aβ 5 µg/mL, 60 min, 37 °C
Description: as §2

[5] = system: CR3 (CD11b); assay: CR3 (CD11b) surface expression on iPSC-derived microglia; type: cell-based, human; settings: Aβ 5 µg/mL, 60 min, 37 °C
Description: as §2

[6] = system: Aβ; assay: FDM-NTA of synthetic Aβ in PBS, QD-antibody conjugates; type: binding, human; settings: PBS pH 7.4; detected by aducanumab biosimilar; A-Aβ value on average
Description: QD Ab (Ab) coupling was performed using SiteClick Qdot 655 Ab Labeling Kit (no. S10453; Molecular Probes) according to manufactures instructions. In brief, Ab, either “Aducanumab biosimilar” human IgG1,κ to aggregated Aβ (cat. no. PX-TA1335, lot. no. 040721-A01, ProteoGenix), or “Isotype control” human IgG1,κ (cat.no. HG1K, lot.no. MA14OC2803, SinoBiologicals) was concentrated in Ab preparation buffer to a concentration of 2 mg/mL or above. The buffer was simultaneously changed to 0.05 M Tris, pH 7.0. Next, carbohydrates on the Ab were modified by incubation with β-galactosidase for 4 h at 37 °C. […]
Samples for NTA were analyzed using a NanoSight NS300 system (Malvern Panalytical). The system was configured with a 405-nm laser, a high-sensitivity scientific complementary metal–oxide–semiconductor Orca Flash 2.8/Hamamatsu C11440 camera (Malvern Panalytical), a syringe pump, and for fluorescence measurements, a 650-nm long-pass filter was used. […] The videos were collected and analyzed using NanoSight software (version 3.3 and 3.4 with a concentration upgrade; Malvern). […] The camera level was set for both scattering and fluorescence mode to a maximum of 16. […] Only samples analyzed with the same detection threshold were compared. Pure protein was analyzed in PBS/EDTA with and without a 1:20,000 dilution of anti-Aβ (Aducanumab bios.) or isotype-matched Ab-QD reporters. […]

- Kd [1]: ~79 µM
- koff [1]: 0.11 s⁻¹
- Interaction with CR4 I-domain [2]: no interaction
Substance: M-Aβ: Unaggregated and mainly monomeric synthetic human Aβ
- Lysosomal activity of iMGs [3]: no such ability
- CD11c (CR4) surface expression [4]: KIM127 Ab did not influence the CD11c expression
- CD11b (CR3) surface expression [5]: not affected
- Particles above 600 nm [6]: less than 0.5 × 10^6 particles/mL
